Assay results: US20260102413A1, “TREATING PAIN ASSOCIATED WITH CENTRAL SENSITIZATION” (Medicon Pharmaceuticals, Inc., priority 2022, published 2026)
Like-named read-outs stand apart in the source and are kept apart here.

Tests used:
in vivo = conditions: rat
Protocol: Approximately 800 μL of blood were collected through cardiac puncture and immediately centrifuged.
Tissue samples were harvested using separate dissection instruments for each tissue sample to avoid cross contamination, and snap frozen. The levels of the test drug were determined by HPLC.
As previously described (Wen et al, 2019), each plasma sample was mixed with double volume of acetonitrile and centrifuged at 13,200 rpm for 15 min. Tissue samples were weighed, ddH2O (100-300 μL, depending on tissue weight) was added, and they were homogenized. Following addition of acetonitrile (twice the volume of the homogenate), the mixture was sonicated for 10 min, centrifuged at 13,200 rpm for 15 min, and analyzed by HPLC, as reported (Wen et al, 2019).
It was performed following a previously reported method (Xie et al, 2012). Briefly, the HPLC system consisted of a Waters Alliance 2695 Separations Module (Milford, MA, USA) equipped with a Waters 2998 photodiode array detector (328 nm) and a Thermo Hypersil BDS C18 column (150×4.6 mm, particle size 3 μm). The mobile phase consisted of a gradient between solvent A (formic acid, CH3CN, H2O (0.1:4.9:95 v/v/v)) and solvent B (CH3CN) at a flow rate of 1 mL·min−1 at 30° C. We applied gradient elution from 30 to 100% solvent B from 0-6 min, and it was maintained at 100% solvent B until 8 min.
The methods are identical to those used in Example 27.
A single dose of PN or PSA was given by oral gavage to groups of three Sprague-Dawley rats, which were euthanized and dissected according to the early example. The oral gavage solution of phosphonaproxen was prepared by dissolving in 10% DMSO and then suspending it in corn oil.

COX-2 = COX-2 (Homo sapiens, UniProt P35354); conditions: cited from earlier work
[1] = format: in vivo, mouse; conditions: mouse, in vivo
Protocol: At 0.5, 1, 3, 5, 12, 18, and 24 h, mice (n=4-5 mice/time point) were euthanized with CO2 inhalation. Blood was drawn immediately after death. Tissues, including paw skin, paw muscle, leg muscle, the sciatic nerve and lumbar DRG bilaterally were dissected quickly, immediately frozen in liquid nitrogen and stored at −80° C. until analyzed.

[2] = system: mice with paclitaxel-induced central sensitization; experiment: cold allodynia (acetone test), paclitaxel-induced central sensitization; conditions: mouse, in vivo
Protocol: To determine the outcome of treatment, assessment of mechanical allodynia was performed. […] Both methods of assessing allodynia are described in Toma W, et al. Neuropharmacology 2017; 117:305-15. Mechanical and cold allodynia are determined at least one day apart in the same animal.
The acetone test was used. Briefly, acetone was applied onto the plantar surface of each hind paw. The time each mouse spent licking, lifting, and/or shaking the hind paw recorded over 60 seconds was the score for cold allodynia.

COX-1 = COX-1 (Homo sapiens, UniProt P23219); conditions: cited from earlier work
STZ-diabetic rats = format: in vivo, rat; conditions: rat, in vivo
Source text: The animal model corresponds to that used for Example 4, but using a prevention protocol. As in Example 4, the outcome measure, determining the effect of the treatment on the prevention of mechanical allodynia, was the PWT test, using von Frey filaments. The measurements were taken at day −3, before treatment or induction of neuropathic pain associated with DPN, and again at the end of the study period (day 28).
The rats were randomised into treatment groups as follows, all having an average body weight of about 225 g. • 1. Group 1: naïve rats (n=6) • 2. Group 2: STZ only (n=8) • 3. Group 3: STZ plus vehicle (n=8) • 4. […] Group 5: STZ plus sulindac 0.7% (n=8) • 6. Group 6: STZ plus lidocaine cream 5% (n=8)
Each treatment group was subjected to a PWT assessment at day −3 in order to determine the baseline of mechanical allodynia.
For those rats in the lidocaine treatment group, lidocaine cream was applied only once to both hind paws of the rats 30 min before the final PWT measurement on day 28. On day 0, neuropathic pain associated with DPN was induced with the administration of STZ, and the blood glucose was checked on day 3.

[3] = system: mice with oxaliplatin-induced neuropathic pain; experiment: von Frey mechanical allodynia, oxaliplatin-induced pain, topical PS; conditions: mouse, in vivo
Source text: (§1) Paw withdrawn, licking or shaking were considered positive responses.

[4] = system: mice with NTG-induced chronic migraine; experiment: von Frey PWT, NTG-induced chronic migraine model; format: in vivo, mouse; conditions: mouse, in vivo
Source text: The NTG-induced chronic migraine model was used as described previously.

corneal neuropathic pain = experiment: preliminary in vivo evidence, PS to the ocular surface, corneal neuropathic pain
[5] = system: mice with vincristine-induced neuropathic pain; experiment: von Frey mechanical allodynia, vincristine-induced pain, topical PS; conditions: mouse, in vivo
Source text: as §1

[6] = system: BALB/c mice infected with HSV-1 KOS strain (PHN); format: in vivo, mouse; conditions: mouse, in vivo
Protocol: PHN was induced in mice by infecting them with the HSV-1 KOS strain virus and following established protocols (Ou et al, Front Immunol, 14, 1026269, 2023; Takasaki et al, Anesthesiology, 96 (5), 1168-74, 2002).
; Reckitt Benckiser). Three days later, HSV-1 (10^6 PFUs in 20 μl PBS) was inoculated on the shin of the right hind paw (5×5 mm) after scarification with sandpaper. The virus was applied directly to the scarified area. The contralateral hind paw was without inoculation. Mock infection was performed using the same virus inactivated by heating at 60° C. for 1 h.
In a second experiment, the effect of the parent compound, sulindac, was tested in the same mouse model. Five days post-inoculation, sulindac (as a 5% gel), or vehicle control were administered topically onto both hind paws of mice three times a day for three days.
PHN was induced in mice by infecting them with the HSV-1 KOS strain virus in line with the previous Examples.
Five days post-inoculation, NO-sulindac (Formula XLIV) (as a 5% gel), or vehicle control were administered topically onto both hind paws of mice three times a day for three days.

mice = conditions: mouse, in vivo
[7] = drug levels in proximal and distal half of the sciatic nerve after topical PS; format: in vivo, mouse; conditions: mouse, in vivo
Protocol: In a separate experiment we studied 8 mice with paclitaxel-induced PN treated with PS 8% ointment 3×/d for 2 wks. Mice were euthanized as above 30 minutes after the last dose of PS. From these mice we harvested both sciatic nerves dividing each into proximal and distal halves, and combined the corresponding halves of every two animals for assay of drug levels.

chronic pain after LASIK = experiment: PS to outer surface of eyelid in a subject after kerato-refractive surgery (LASIK); conditions: in vivo
[8] = system: mice given paclitaxel (CIPN prevention); experiment: von Frey PWT, prevention of paclitaxel-induced CIPN pain, topical PS; conditions: mouse, in vivo
Protocol: In order to establish CIPN, paclitaxel is administered at 10 mg/kg intraperitoneally into C57/BL mice. […] This dosing regimen of paclitaxel produces pain associated with CIPN with time courses that are similar to those of pain after paclitaxel administration in cancer patients.
The first doses were administered 2 days prior to the first administration of paclitaxel.

[9] = system: mice with chronic constriction injury of the left sciatic nerve (PTPN); experiment: von Frey PWT, chronic constriction injury (CCI) model of PTPN, topical compounds; format: in vivo, mouse; conditions: Q922, PSA 5% on left hind paw 3x/day 6 days

Sequence of COX-1 (P23219 24-599): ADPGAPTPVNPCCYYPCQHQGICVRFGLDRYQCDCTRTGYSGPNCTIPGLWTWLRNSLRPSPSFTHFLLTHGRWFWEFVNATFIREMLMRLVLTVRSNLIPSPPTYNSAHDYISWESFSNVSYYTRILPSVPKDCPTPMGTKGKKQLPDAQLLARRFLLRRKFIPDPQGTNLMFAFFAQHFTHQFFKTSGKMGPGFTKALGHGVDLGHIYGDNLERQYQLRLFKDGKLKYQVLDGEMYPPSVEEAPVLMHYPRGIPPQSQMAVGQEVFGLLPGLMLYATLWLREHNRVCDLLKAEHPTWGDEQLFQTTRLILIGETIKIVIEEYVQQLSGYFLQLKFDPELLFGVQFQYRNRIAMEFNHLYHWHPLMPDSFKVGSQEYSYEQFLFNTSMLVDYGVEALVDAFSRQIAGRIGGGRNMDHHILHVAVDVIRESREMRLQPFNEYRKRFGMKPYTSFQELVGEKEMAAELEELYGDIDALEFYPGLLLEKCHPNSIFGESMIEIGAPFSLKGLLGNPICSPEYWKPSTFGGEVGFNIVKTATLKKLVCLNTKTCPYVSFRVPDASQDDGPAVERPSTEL
Sequence of COX-2 (P35354 18-604): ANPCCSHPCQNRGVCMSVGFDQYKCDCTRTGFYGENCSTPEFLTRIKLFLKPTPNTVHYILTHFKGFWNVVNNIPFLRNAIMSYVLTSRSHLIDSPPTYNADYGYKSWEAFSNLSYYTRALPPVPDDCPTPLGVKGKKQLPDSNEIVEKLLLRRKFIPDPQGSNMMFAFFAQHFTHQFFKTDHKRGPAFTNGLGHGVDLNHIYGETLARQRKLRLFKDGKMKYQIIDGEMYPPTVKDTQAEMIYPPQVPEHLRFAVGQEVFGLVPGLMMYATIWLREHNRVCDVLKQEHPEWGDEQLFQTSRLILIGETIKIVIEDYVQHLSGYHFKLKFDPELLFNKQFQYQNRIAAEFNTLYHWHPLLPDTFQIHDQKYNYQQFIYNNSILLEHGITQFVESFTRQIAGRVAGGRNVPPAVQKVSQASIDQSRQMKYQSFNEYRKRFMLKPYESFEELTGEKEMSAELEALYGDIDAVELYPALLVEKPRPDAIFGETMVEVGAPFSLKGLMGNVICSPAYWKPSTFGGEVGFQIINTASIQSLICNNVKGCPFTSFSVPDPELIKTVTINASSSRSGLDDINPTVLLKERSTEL

## CCOP(=O)(OCC)OCCCCOC(=O)CC1=C(C)/C(=C/c2ccc([S+](C)[O-])cc2)c2ccc(F)cc21 (stereo not shown) [PS, phosphosulindac]
In vivo
  detection in the systemic circulation: No PS was detected
In vivo; po, 250 mg/kg
  T1/2: 3.3 h
COX-2
  inhibition of COX-2: does not inhibit
[1]
  detection in the systemic circulation: no PS was detected
[2]
  cold allodynia score (acetone test, time licking/lifting/shaking over 60 s): 3.1±0.4
COX-1
  inhibition of COX-1: does not inhibit
STZ-diabetic rats
  von Frey, gm mean ± SEM: 33.1 ± 1.6 gm
[3]
  mechanical allodynia score (von Frey) after PS treatment: 1.8 ± 0.09 g
[4]
  PWT, g Mean ± SEM, Baseline: 2.28 ± 0.34 g
  PWT, g Mean ± SEM, Day 11: 1.18 ± 0.10 g
Corneal neuropathic pain
  analgesic effect on corneal neuropathic pain: striking analgesic effect
[5]
  mechanical allodynia score (von Frey): 1.5 ± 0.09 g
[6]
  PWT, g Mean ± SEM, Post-inoculation, day 5: 0.53 ± 0.06 g
  PWT, g Mean ± SEM, Post-treatment: 0.93 ± 0.06 g
  PWT, g Mean ± SEM, Pre-inoculation: 1.27 ± 0.19 g
mice
  topical or systemic side effects: no topical or systemic side effects
[7]
  concentration in distal half of the sciatic nerve, mean ± SEM: 17.0 ± 5.1 µM
  concentration in proximal half of the sciatic nerve, mean ± SEM: 0.9 ± 0.3 µM
Chronic pain after LASIK
  effect on chronic pain after LASIK: dramatically reduced chronic pain
[8]
  PWT, gm Mean ± SEM: 0.4 ± 0.01 gm
  mechanical allodynia score (von Frey): 1.2 ± 0.15 g

## CCOP(=O)(NCCCCNC(=O)c1ccccc1SC/C=C(\C)CC/C=C(\C)CCC=C(C)C)OCC [Q922]
[9]
  PWT, g Mean ± SEM: 1.48 ± 0.36 g
